Measured values from patent US20250059198A1, “BRM DEGRADING COMPOUNDS AND ASSOCIATED METHODS OF USE” (Arvinas Operations, Inc., priority 2021, published 2025).

Molecular target: T1, BRM (Homo sapiens, UniProt P51531)
T1 construct: Western Blot Screen of BRM Degradation in SW1573 Cells; endogenous in cells; host or cells: SW1573 cells
Experiment: BRM degradation (Dmax and DC50) in SW1573 cells, Western blot screen / In-Cell Western screen
Type: cell-based
Details: overnight (18-20 hours) treatment; for Dmax: read-out: Dmax (%)** (% degraded)
In short: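 Dmax and DC50 were derived from BRM levels normalised to an alpha-tubulin control, measured by chemiluminescent Western blotting of lysates or by PFA-fixed In-Cell Western on LI-COR Odyssey. SW1573 cells received compound overnight (18–20 h, 0.1% DMSO final).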

T1 sequence (P51531 whole entry): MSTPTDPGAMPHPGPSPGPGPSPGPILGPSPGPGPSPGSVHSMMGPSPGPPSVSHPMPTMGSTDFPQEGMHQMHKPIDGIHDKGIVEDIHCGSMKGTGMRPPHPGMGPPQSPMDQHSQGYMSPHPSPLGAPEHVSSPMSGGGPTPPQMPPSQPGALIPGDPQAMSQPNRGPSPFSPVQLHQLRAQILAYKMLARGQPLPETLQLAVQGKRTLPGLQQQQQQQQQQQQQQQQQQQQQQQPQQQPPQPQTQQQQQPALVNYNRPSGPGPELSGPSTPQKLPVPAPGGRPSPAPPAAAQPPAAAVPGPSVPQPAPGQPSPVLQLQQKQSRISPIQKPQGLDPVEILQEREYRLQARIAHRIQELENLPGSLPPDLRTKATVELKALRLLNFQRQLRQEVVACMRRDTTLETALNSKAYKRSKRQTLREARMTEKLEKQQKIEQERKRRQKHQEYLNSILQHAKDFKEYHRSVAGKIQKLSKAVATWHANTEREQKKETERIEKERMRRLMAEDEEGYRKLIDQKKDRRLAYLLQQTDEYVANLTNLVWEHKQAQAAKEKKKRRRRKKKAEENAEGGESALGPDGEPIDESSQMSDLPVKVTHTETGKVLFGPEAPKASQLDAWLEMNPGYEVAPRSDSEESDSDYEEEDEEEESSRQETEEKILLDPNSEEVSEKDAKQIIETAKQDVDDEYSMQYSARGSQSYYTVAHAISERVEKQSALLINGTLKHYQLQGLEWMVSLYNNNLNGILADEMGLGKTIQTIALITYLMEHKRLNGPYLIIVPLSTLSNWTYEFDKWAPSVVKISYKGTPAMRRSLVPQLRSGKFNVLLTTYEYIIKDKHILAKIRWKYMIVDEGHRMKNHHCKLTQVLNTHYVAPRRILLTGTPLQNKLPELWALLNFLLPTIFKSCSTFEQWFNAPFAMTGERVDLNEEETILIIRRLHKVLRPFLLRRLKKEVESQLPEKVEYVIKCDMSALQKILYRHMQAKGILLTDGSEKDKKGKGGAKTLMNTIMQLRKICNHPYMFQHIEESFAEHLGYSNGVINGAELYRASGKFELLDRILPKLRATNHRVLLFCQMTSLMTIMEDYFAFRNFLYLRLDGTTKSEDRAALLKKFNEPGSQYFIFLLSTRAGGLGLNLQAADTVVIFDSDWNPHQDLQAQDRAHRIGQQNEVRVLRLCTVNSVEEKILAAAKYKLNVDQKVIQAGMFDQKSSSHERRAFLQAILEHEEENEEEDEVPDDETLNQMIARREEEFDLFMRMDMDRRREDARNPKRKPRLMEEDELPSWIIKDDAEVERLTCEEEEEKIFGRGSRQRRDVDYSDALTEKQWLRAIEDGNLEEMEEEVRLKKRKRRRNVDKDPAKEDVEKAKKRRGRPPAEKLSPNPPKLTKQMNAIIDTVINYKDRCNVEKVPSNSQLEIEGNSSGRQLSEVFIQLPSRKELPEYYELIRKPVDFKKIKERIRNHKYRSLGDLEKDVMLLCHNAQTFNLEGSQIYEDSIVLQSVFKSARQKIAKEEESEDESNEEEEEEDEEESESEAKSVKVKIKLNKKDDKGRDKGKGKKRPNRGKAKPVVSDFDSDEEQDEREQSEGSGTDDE

Structure (SMILES)	DC50	Dmax
Cc1ncsc1-c1ccc([C@H](C)NC(=O)[C@@H]2C[C@@H](O)CN2C(=O)[C@@H](c2cc(N3CCC(CN4CCC5(CC4)CC(N4CCN(C)[C@H](CN6C7CCC6CN(c6cc(-c8ccccc8O)nnc6N)C7)C4)C5)CC3)no2)C(C)C)cc1 [Compound 132, (2S,4R)-1-[(2R)-2-{3-[4-({2-[(3S)-3-({3-[3-amino-6-(2-hydroxyphenyl)pyridazin-4-yl]-3,8-diazabicyclo[3.2.1]octan-8-yl}methyl)-4-methylpiperazin-1-yl]-7-azaspiro[3.5]nonan-7-yl}methyl)piperidin-1-yl]-1,2-oxazol-5-yl}-3-methylbutanoyl]-4-hydroxy-N-[(1S)-1-[4-(4-methyl-1,3-thiazol-5-yl)phenyl]ethyl]pyrrolidine-2-carboxamide]	< 2.5 nM	> 75%
Cc1ncsc1-c1ccc([C@H](C)NC(=O)[C@@H]2C[C@@H](O)CN2C(=O)[C@@H](c2cc(N3CCC(CN4CCC5(CC4)CC(N4CCN(C)[C@@H](CN6C7CCC6CN(c6cc(-c8ccccc8O)nnc6N)C7)C4)C5)CC3)no2)C(C)C)cc1 [Compound 133, (2S,4R)-1-[(2R)-2-{3-[4-({2-[(3R)-3-({3-[3-amino-6-(2-hydroxyphenyl)pyridazin-4-yl]-3,8-diazabicyclo[3.2.1]octan-8-yl}methyl)-4-methylpiperazin-1-yl]-7-azaspiro[3.5]nonan-7-yl}methyl)piperidin-1-yl]-1,2-oxazol-5-yl}-3-methylbutanoyl]-4-hydroxy-N-[(1S)-1-[4-(4-methyl-1,3-thiazol-5-yl)phenyl]ethyl]pyrrolidine-2-carboxamide]	< 2.5 nM	> 75%
Cc1ncsc1-c1ccc([C@H](C)NC(=O)[C@@H]2C[C@@H](O)CN2C(=O)[C@H](c2cc(OCCOC(=O)N3CCC(O[C@H]4C[C@H](Oc5cc(N6C7CCC6CN(c6cc(-c8ccccc8O)nnc6N)C7)ccn5)C4)CC3)no2)C(C)C)cc1 [Compound 134, 2-({5-[(2S)-1-[(2S,4R)-4-hydroxy-2-{[(1S)-1-[4-(4-methyl-1,3-thiazol-5-yl)phenyl]ethyl]carbamoyl}pyrrolidin-1-yl]-3-methyl-1-oxobutan-2-yl]-1,2-oxazol-3-yl}oxy)ethyl 4-[(1r,3r)-3-[(4-{3-[3-amino-6-(2-hydroxyphenyl)pyridazin-4-yl]-3,8-diazabicyclo[3.2.1]octan-8-yl}pyridin-2-yl)oxy]cyclobutoxy]piperidine-1-carboxylate]	≥ 30 nM	
Cc1ncsc1-c1ccc([C@H](C)NC(=O)[C@@H]2C[C@@H](O)CN2C(=O)[C@H](c2cc(N3CCC(O[C@H]4CC[C@H](Oc5cc(N6C7CCC6CN(c6cc(-c8ccccc8O)nnc6N)C7)ccn5)CC4)CC3)no2)C(C)C)cc1 [Compound 135, (2S,4R)-4-hydroxy-N-[(1S)-1-[4-(4-methyl-1,3-thiazol-5-yl)phenyl]ethyl]-1-[(2S)-3-methyl-2-[3-(4-{[(1r,4r)-4-[(4-{3-[3-amino-6-(2-hydroxyphenyl)pyridazin-4-yl]-3,8-diazabicyclo[3.2.1]octan-8-yl}pyridin-2-yl)oxy]cyclohexyl]oxy}piperidin-1-yl)-1,2-oxazol-5-yl]butanoyl]pyrrolidine-2-carboxamide]	≥ 30 nM	
Cc1ncsc1-c1ccc([C@H](C)NC(=O)[C@@H]2C[C@@H](O)CN2C(=O)[C@@H](c2cc(N3CCC(O[C@H]4CC[C@H](Oc5cc(N6C7CCC6CN(c6cc(-c8ccccc8O)nnc6N)C7)ccn5)CC4)CC3)no2)C(C)C)cc1 [Compound 136, (2S,4R)-4-hydroxy-N-[(1S)-1-[4-(4-methyl-1,3-thiazol-5-yl)phenyl]ethyl]-1-[(2R)-3-methyl-2-[3-(4-{[(1r,4r)-4-[(4-{3-[3-amino-6-(2-hydroxyphenyl)pyridazin-4-yl]-3,8-diazabicyclo[3.2.1]octan-8-yl}pyridin-2-yl)oxy]cyclohexyl]oxy}piperidin-1-yl)-1,2-oxazol-5-yl]butanoyl]pyrrolidine-2-carboxamide]	< 2.5 nM	> 75%
CC(C)[C@H](C(=O)N1C[C@H](O)C[C@H]1C(=O)N[C@@H](C)c1ccc(C#N)cc1)c1cc(N2CCC(C(=O)N3CCC(O[C@H]4C[C@H](Oc5cc(N6C7CCC6CN(c6cc(-c8ccccc8O)nnc6N)C7)ccn5)C4)CC3)CC2)no1 [Compound 137, (2S,4R)-N-[(1S)-1-(4-cyanophenyl)ethyl]-4-hydroxy-1-[(2S)-3-methyl-2-[3-(4-{4-[(1r,3r)-3-[(4-{3-[3-amino-6-(2-hydroxyphenyl)pyridazin-4-yl]-3,8-diazabicyclo[3.2.1]octan-8-yl}pyridin-2-yl)oxy]cyclobutoxy]piperidine-1-carbonyl}piperidin-1-yl)-1,2-oxazol-5-yl]butanoyl]pyrrolidine-2-carboxamide]	≥ 30 nM	
CC(C)[C@@H](C(=O)N1C[C@H](O)C[C@H]1C(=O)N[C@@H](C)c1ccc(C#N)cc1)c1cc(N2CCC(C(=O)N3CCC(O[C@H]4C[C@H](Oc5cc(N6C7CCC6CN(c6cc(-c8ccccc8O)nnc6N)C7)ccn5)C4)CC3)CC2)no1 [Compound 138, (2S,4R)-N-[(1S)-1-(4-cyanophenyl)ethyl]-4-hydroxy-1-[(2R)-3-methyl-2-[3-(4-{4-[(1r,3r)-3-[(4-{3-[3-amino-6-(2-hydroxyphenyl)pyridazin-4-yl]-3,8-diazabicyclo[3.2.1]octan-8-yl}pyridin-2-yl)oxy]cyclobutoxy]piperidine-1-carbonyl}piperidin-1-yl)-1,2-oxazol-5-yl]butanoyl]pyrrolidine-2-carboxamide]	< 2.5 nM	> 75%
CC(C)[C@H](C(=O)N1C[C@H](O)C[C@H]1C(=O)N[C@@H](C)c1ccc(C#N)cc1)c1cc(N2CCN(C(=O)N3CCC(O[C@H]4C[C@H](Oc5cc(N6C7CCC6CN(c6cc(-c8ccccc8O)nnc6N)C7)ccn5)C4)CC3)CC2)no1 [Compound 139, (2S,4R)-N-[(1S)-1-(4-cyanophenyl)ethyl]-4-hydroxy-1-[(2S)-3-methyl-2-[3-(4-{4-[(1r,3r)-3-[(4-{3-[3-amino-6-(2-hydroxyphenyl)pyridazin-4-yl]-3,8-diazabicyclo[3.2.1]octan-8-yl}pyridin-2-yl)oxy]cyclobutoxy]piperidine-1-carbonyl}piperazin-1-yl)-1,2-oxazol-5-yl]butanoyl]pyrrolidine-2-carboxamide]	≥ 30 nM	
CC(C)[C@@H](C(=O)N1C[C@H](O)C[C@H]1C(=O)N[C@@H](C)c1ccc(C#N)cc1)c1cc(N2CCN(C(=O)N3CCC(O[C@H]4C[C@H](Oc5cc(N6C7CCC6CN(c6cc(-c8ccccc8O)nnc6N)C7)ccn5)C4)CC3)CC2)no1 [Compound 140, (2S,4R)-N-[(1S)-1-(4-cyanophenyl)ethyl]-4-hydroxy-1-[(2R)-3-methyl-2-[3-(4-{4-[(1r,3r)-3-[(4-{3-[3-amino-6-(2-hydroxyphenyl)pyridazin-4-yl]-3,8-diazabicyclo[3.2.1]octan-8-yl}pyridin-2-yl)oxy]cyclobutoxy]piperidine-1-carbonyl}piperazin-1-yl)-1,2-oxazol-5-yl]butanoyl]pyrrolidine-2-carboxamide]	< 2.5 nM	> 75%
Cc1ncsc1-c1ccc([C@H](C)NC(=O)[C@@H]2C[C@@H](O)CN2C(=O)[C@@H](c2cc(N3CCC(CN4CC5(CC(N6CCO[C@H](CN7C8CCC7CN(c7cc(-c9ccccc9O)nnc7N)C8)C6)C5)C4)CC3)no2)C(C)C)cc1 [Compound 141, (2S,4R)-1-[(2R)-2-{3-[4-({6-[(2S)-2-({3-[3-amino-6-(2-hydroxyphenyl)pyridazin-4-yl]-3,8-diazabicyclo[3.2.1]octan-8-yl}methyl)morpholin-4-yl]-2-azaspiro[3.3]heptan-2-yl}methyl)piperidin-1-yl]-1,2-oxazol-5-yl}-3-methylbutanoyl]-4-hydroxy-N-[(1S)-1-[4-(4-methyl-1,3-thiazol-5-yl)phenyl]ethyl]pyrrolidine-2-carboxamide]	< 2.5 nM	> 75%
Cc1ncsc1-c1ccc([C@H](C)NC(=O)[C@@H]2C[C@@H](O)CN2C(=O)[C@@H](c2cc(N3CCC(CN4CCCC5(CC(N6CCO[C@H](CN7C8CCC7CN(c7cc(-c9ccccc9O)nnc7N)C8)C6)C5)C4)CC3)no2)C(C)C)cc1 (stereo partly drawn) [Compound 142, (2S,4R)-1-[(2R)-2-{3-[4-({2-[(2S)-2-({3-[3-amino-6-(2-hydroxyphenyl)pyridazin-4-yl]-3,8-diazabicyclo[3.2.1]octan-8-yl}methyl)morpholin-4-yl]-6-azaspiro[3.5]nonan-6-yl}methyl)piperidin-1-yl]-1,2-oxazol-5-yl}-3-methylbutanoyl]-4-hydroxy-N-[(1S)-1-[4-(4-methyl-1,3-thiazol-5-yl)phenyl]ethyl]pyrrolidine-2-carboxamide]	< 2.5 nM	> 75%
Cc1ncsc1-c1ccc([C@H](C)NC(=O)[C@@H]2C[C@@H](O)CN2C(=O)[C@@H](c2cc(N3CCC(CN4CCC5(CCC5N5CCO[C@H](CN6C7CCC6CN(c6cc(-c8ccccc8O)nnc6N)C7)C5)CC4)CC3)no2)C(C)C)cc1 (stereo partly drawn) [Compound 143, (2S,4R)-1-[(2R)-2-{3-[4-({1-[(2S)-2-({3-[3-amino-6-(2-hydroxyphenyl)pyridazin-4-yl]-3,8-diazabicyclo[3.2.1]octan-8-yl}methyl)morpholin-4-yl]-7-azaspiro[3.5]nonan-7-yl}methyl)piperidin-1-yl]-1,2-oxazol-5-yl}-3-methylbutanoyl]-4-hydroxy-N-[(1S)-1-[4-(4-methyl-1,3-thiazol-5-yl)phenyl]ethyl]pyrrolidine-2-carboxamide]	< 2.5 nM	> 75%
Cc1ncsc1-c1ccc([C@H](C)NC(=O)[C@@H]2C[C@@H](O)CN2C(=O)C(c2cc(N3CCC(OC(=O)N4CCC(Oc5cc(N6CCN(c7cc(-c8ccccc8O)nnc7N)CC6)ccn5)CC4)CC3)no2)C(C)C)cc1 (stereo partly drawn) [Compound 144, 1-(5-{1-[(2S,4R)-4-hydroxy-2-{[(1S)-1-[4-(4-methyl-1,3-thiazol-5-yl)phenyl]ethyl]carbamoyl}pyrrolidin-1-yl]-3-methyl-1-oxobutan-2-yl}-1,2-oxazol-3-yl)piperidin-4-yl 4-[(4-{4-[3-amino-6-(2-hydroxyphenyl)pyridazin-4-yl]piperazin-1-yl}pyridin-2-yl)oxy]piperidine-1-carboxylate]	2.5 to 10 nM	> 75%
